The text below walks through data of patent publication US4646832A, “Determining residual oil saturation by injecting salts of carbonic and halocarboxylic acids” (Shell Oil Company, priority 1985, dated 1987).

For series [1] the following is noted: 50 psig, 0.05 mol/liter acid salt, 0.5 mol/liter NaCl.
Excerpt: In each case, the solution was maintained at a pressure of 50 psig during each test. The pH of the solution was maintained substantially constant by adding portions of 0.1 mol/liter sodium bicarbonate solution to the system while the hydrolysis was proceeding. Each acid generator solution consisted of water containing 0.5 mol/liter sodium chloride and 0.05 mols/liter of the indicated halocarboxylic acid salt.
*^1 This is the time, in hours, required for the acid generator to be
onehalf reacted to form CO2 or acid.
Series [2] can be described thus: Best estimate of applicable temperature range of CO2 generators (Table I). Format: physicochemical. The conditions noted are these: best estimate of the applicable temperature range as CO2 generator.

Read-outs that look alike come from different tables or passages of the source.

`O=C(O)CBr` [Bromoacetic acid]: the “Half Life, t1/2” value was 17.3 h in series [1] (Test 16, 167 °F, pH 5.5); 12.5 h in series [1] (Test 17, 166 °F, pH 7.0); 171.4 h in series [1] (Test 18, 143 °F, pH 7.0); 32.6 h in series [1] (Test 19, 156 °F, pH 6.2); 136.9 h in series [1] (Test 20, 140 °F, pH 6.2); 319.2 h in series [1] (Test 21, 124 °F, pH 6.2).

As to `O=C(O)C(Cl)Cl` [Dichloroacetic acid], the “Half Life, t1/2” value in series [1] (Test 10, 197 °F, pH 7.0) is 111.8 h; in series [1] (Test 11, 221 °F, pH 7.0) it was 23.0 h.

As to `O=C(O)CCCl` [3-Chloropropionic acid], the “Half Life, t1/2” value in series [1] (Test 1, 138 °F, pH 8.0) came to 43.5 h; in series [1] (Test 2, 140 °F, pH 7.0) it was 16.1 h; in series [1] (Test 3, 133 °F, pH 6.2), 27.9 h; in series [1] (Test 4, 133 °F, pH 5.5) it was 30.4 h; in series [1] (Test 5, 113 °F, pH 5.5) it was 114.0 h; in series [1] (Test 6, 117 °F, pH 6.2), 95.8 h. Besides, the “Half Life, t1/2” value in series [1] (Test 7, 114 °F, pH 7.0) is 130.1 h.

As to `CC(Cl)C(=O)O` (stereo not drawn) [2-Chloropropionic acid], the “Half Life, t1/2” value came out at 73.1 h in series [1] (Test 25, 130 °F, pH 6.2) and 598.5 h in series [1] (Test 26, 114 °F, pH 6.2).

Consider `O=C(O)c1ccccc1Cl` [O--Chlorobenzoic acid], for which, in series [2], the “Temperature Range” value is recorded as greater than 300 °F. In addition, the “Half Life, t1/2” value is 3,113 hours in series [1] (Test 12, 212 °F, pH 7.0); 2,543 hours in series [1] (Test 13, 212 °F, pH 6.2); 3,906 hours in series [1] (Test 14, 204 °F, pH 8.0); 2,335 hours in series [1] (Test 15, 251 °F, pH 8.0).

Regarding `CC(Cl)CC(=O)O` (stereo not drawn) [3-Chlorobutyric acid], the “Half Life, t1/2” value in series [1] (Test 22, 125 °F, pH 6.2) worked out at 13.2 h; in series [1] (Test 23, 99 °F, pH 6.2), 29.2 h; in series [1] (Test 24, 102 °F, pH 6.2) it was 80.0 h.

For `O=C(O)CCl` [Monochloroacetic acid], the “Half Life, t1/2” value in series [1] (Test 8, 182 °F, pH 7.0) turned out to be 127.9 h; in series [1] (Test 9, 198 °F, pH 7.0), 49.4 h.
